# Measurements taken from patent US20160326142A1, “PYRAZOLE CARBOXAMIDE COMPOUNDS, COMPOSITIONS AND METHODS OF USE” (Genentech, Inc., priority 2012, published 2016).
# Target: T1, ITK (Homo sapiens, UniProt Q08881)
# T1 construct: purchased Invitrogen PV3875
# T1 sequence (Q08881 1-620): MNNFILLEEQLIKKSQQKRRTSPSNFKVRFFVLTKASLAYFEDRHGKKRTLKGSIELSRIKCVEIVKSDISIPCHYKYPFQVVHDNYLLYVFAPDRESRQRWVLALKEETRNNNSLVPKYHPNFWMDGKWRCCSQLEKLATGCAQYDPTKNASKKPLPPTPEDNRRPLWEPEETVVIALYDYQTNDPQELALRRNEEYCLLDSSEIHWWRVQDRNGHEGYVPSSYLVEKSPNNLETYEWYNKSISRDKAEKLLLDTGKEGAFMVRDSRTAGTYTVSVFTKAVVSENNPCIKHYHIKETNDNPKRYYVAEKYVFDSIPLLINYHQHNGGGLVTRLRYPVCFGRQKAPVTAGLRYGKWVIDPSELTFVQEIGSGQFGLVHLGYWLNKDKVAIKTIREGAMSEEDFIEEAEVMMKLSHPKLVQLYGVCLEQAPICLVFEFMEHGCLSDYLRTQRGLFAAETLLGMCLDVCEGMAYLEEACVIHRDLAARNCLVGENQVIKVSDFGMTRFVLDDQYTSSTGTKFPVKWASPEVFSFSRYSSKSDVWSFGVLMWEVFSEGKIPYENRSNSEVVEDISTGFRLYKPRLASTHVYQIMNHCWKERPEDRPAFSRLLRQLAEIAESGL
# Experiment: ITK enzyme assay (Caliper or LCMS peptide phosphorylation)
# Assay type: biochemical
# Conditions: purified ITK (Invitrogen PV3875), 20 μM ATP, Ki by Morrison's quadratic equation
# In short: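 Ki values come from Morrison quadratic fits of activity versus inhibitor concentration, adjusted for ATP-competitive inhibition against ATP/Km,app. Substrate and phosphopeptide from purified ITK reactions were resolved either microfluidically (Caliper, EDTA stop) or by LC-MS MRM (TCA stop).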
row,SMILES,Ki [nM]
1,"CN(C)CCC(c1ccccc1)n1cc(NC(=O)c2n[nH]c3c2CCC2(COC2)C3)cn1 (single isomer, unassigned) [Example 15b, N-(1-(3-(dimethylamino)-1-phenylpropyl)-1H-pyrazol-4-yl)-1,4,5,7-tetrahydrospiro[indazole-6,3′-oxetane]-3-carboxamide]",100
2,"CC1CCc2[nH]nc(C(=O)Nc3cnn(Cc4ccccc4)c3)c2C1 (single isomer, unassigned) [Example 8a, N-(1-benzyl-1H-pyrazol-4-yl)-5-methyl-4,5,6,7-tetrahydro-1H-indazole-3-carboxamide]",70
3,"CC1(C)CCc2c(C(=O)Nc3cnn(C(CCN4CC(F)(F)C4)c4ccccc4)c3)n[nH]c2C1 (single isomer, unassigned) [Example 121b, N-(1-(3-(3,3-difluoroazetidin-1-yl)-1-phenylpropyl)-1H-pyrazol-4-yl)-6,6-dimethyl-4,5,6,7-tetrahydro-1H-indazole-3-carboxamide]",1
4,"CC1(C)CCc2c(C(=O)Nc3cnn(C(c4ccccc4)C4CN(CCF)C4)c3)n[nH]c2C1 (stereo not shown) [Example 75b, N-(1-((1-(2-fluoroethyl)azetidin-3-yl)(phenyl)methyl)-1H-pyrazol-4-yl)-6,6-dimethyl-4,5,6,7-tetrahydro-1H-indazole-3-carboxamide]",0.3
5,"N#Cc1cccc(Cn2cc(NC(=O)c3n[nH]c4c3CCC(c3cncnc3)C4)cn2)c1 (single isomer, unassigned) [Example 4a, N-(1-(3-cyanobenzyl)-1H-pyrazol-4-yl)-6-(pyrimidin-5-yl)-4,5,6,7-tetrahydro-1H-indazole-3-carboxamide]",360
6,"CC1(C)Cc2[nH]nc(C(=O)Nc3cnn(Cc4ccccc4)c3)c2C1 [Example 21, N-(1-benzyl-1H-pyrazol-4-yl)-5,5-dimethyl-1,4,5,6-tetrahydrocyclopenta[c]pyrazole-3-carb oxamide]",7.4
7,"CC1(C)CCc2c(C(=O)Nc3cnn(C(c4cccc(S(C)(=O)=O)c4)C4CC4)c3)n[nH]c2C1 (single isomer, unassigned) [Example 125a, N-(1-(cyclopropyl(3-(methylsulfonyl)phenyl)methyl)-1H-pyrazol-4-yl)-6,6-dimethyl-4,5,6,7-tetrahydro-1H-indazole-3-carboxamide]",2
8,"CC12CCc3c(C(=O)Nc4cnn(Cc5ccccc5)c4)n[nH]c3C1C2 (single isomer, unassigned) [Example 153a, N-(1-benzyl-1H-pyrazol-4-yl)-5a-methyl-1,4,5,5a,6,6a-hexahydrocyclopropa[g]indazole-3-c arboxamide]",58
9,"CC(c1nccs1)n1cc(NC(=O)c2n[nH]c3c2CCC(C)(C)C3)cn1 (single isomer, unassigned) [Example 92b, 6,6-dimethyl-N-(1-(1-(thiazol-2-yl)ethyl)-1H-pyrazol-4-yl)-4,5,6,7-tetrahydro-1H-indazole-3-carboxamide]",10
10,"Cn1ccnc1C(c1cccs1)n1cc(NC(=O)c2n[nH]c3c2CCC(C)(C)C3)cn1 (single isomer, unassigned) [Example 114a, 6,6-dimethyl-N-(1-((1-methyl-1H-imidazol-2-yl)(thiophen-2-yl)methyl)-1H-pyrazol-4-yl)-4,5,6,7-tetrahydro-H-indazole-3-carboxamide]",0.8
11,"CC1(C)CCc2c(C(=O)Nc3cnn(C(CN4CCCC4=O)c4ccccc4)c3)n[nH]c2C1 (racemic) [Example 76, 6,6-dimethyl-N-(1-(2-(2-oxopyrrolidin-1-yl)-1-phenylethyl)-1H-pyrazol-4-yl)-4,5,6,7-tetrahydro-1H-indazole-3-carboxamide]",4
12,"CC1(C)CCc2c(C(=O)Nc3cnn(C(CCN)c4ccccc4)c3)n[nH]c2C1 (single isomer, unassigned) [Example 42b, N-(1-(3-amino-1-phenylpropyl)-1H-pyrazol-4-yl)-6,6-dimethyl-4,5,6,7-tetrahydro-1H-indazole-3-carboxamide]",0.9
13,"CC1(C)CCc2c(C(=O)Nc3cnn(C4COCC4c4ccccc4)c3)n[nH]c2C1 (single isomer, unassigned) [Example 132a, 6,6-dimethyl-N-(1-(4-phenyltetrahydrofuran-3-yl)-1H-pyrazol-4-yl)-4,5,6,7-tetrahydro-1H-indazole-3-carboxamide]",77
14,"CC12Cc3[nH]nc(C(=O)Nc4cnn(C(c5ccccc5)C5CCCCS5(=O)=O)c4)c3CC1C2 (single isomer, unassigned) [Example 143b, N-(1-((1,1-dioxidotetrahydro-2H-thiopyran-2-yl)(phenyl)methyl)-1H-pyrazol-4-yl)-5a-methyl-1,4,4a,5,5a,6-hexahydrocyclopropa[f]indazole-3-carboxamide]",2
15,"CC12CCc3c(C(=O)Nc4cnn(Cc5ccccc5)c4)n[nH]c3C1C2 (single isomer, unassigned) [Example 153b, N-(1-benzyl-1H-pyrazol-4-yl)-5a-methyl-1,4,5,5a,6,6a-hexahydrocyclopropa[g]indazole-3-c arboxamide]",15
16,"CC1(C)CCc2c(C(=O)Nc3cnn(C(CCN)c4ccccc4)c3)n[nH]c2C1 (single isomer, unassigned) [Example 42a, N-(1-(3-amino-1-phenylpropyl)-1H-pyrazol-4-yl)-6,6-dimethyl-4,5,6,7-tetrahydro-1H-indazole-3-carboxamide]",10
17,"O=C1CCC2(CCc3c(C(=O)Nc4cnn(Cc5ccccc5)c4)n[nH]c3C2)N1 (single isomer, unassigned) [Example 148b, N-(1-benzyl-1H-pyrazol-4-yl)-5′-oxo-1,4,5,7-tetrahydrospiro[indazole-6,2′-pyrrolidine]-3-carboxamide]",> 400
18,"CN1CC(C(c2ccccc2)n2cc(NC(=O)c3n[nH]c4c3CCC(C)(C)C4)cn2)CN(C)C1=O (single isomer, unassigned) [Example 129b, N-(1-((1,3-dimethyl-2-oxohexahydropyrimidin-5-yl)(phenyl)methyl)-1H-pyrazol-4-yl)-6,6-di methyl-4,5,6,7-tetrahydro-1H-indazole-3-carboxamide]",6
19,"CC1(O)CCc2c(C(=O)Nc3cnn(Cc4ccccc4)c3)n[nH]c2C1 (single isomer, unassigned) [Example 51a, N-(1-benzyl-1H-pyrazol-4-yl)-6-hydroxy-6-methyl-4,5,6,7-tetrahydro-1H-indazole-3-carboxamide]",160
20,"O=C(Nc1cnn(Cc2ccccc2)c1)c1n[nH]c2c1C1CC(C2)C1 [Example 31, N-(1-benzyl-1H-pyrazol-4-yl)-4,5,6,7-tetrahydro-1H-4,6-methanoindazole-3-carboxamide]",260
21,"CC1(C)Cc2[nH]nc(C(=O)Nc3cnn(Cc4ccccc4)c3)c2CC1C#N (single isomer, unassigned) [Example 90a, N-(1-benzyl-1H-pyrazol-4-yl)-5-cyano-6,6-dimethyl-4,5,6,7-tetrahydro-1H-indazole-3-carboxamide]",570
22,"Cn1cc(C(c2ccccc2)n2cc(NC(=O)c3n[nH]c4c3C3CC3CC4)cn2)cn1 (single isomer, unassigned) [Example 35d, N-(1-((1-methyl-1H-pyrazol-4-yl)(phenyl)methyl)-1H-pyrazol-4-yl)-3,4,5,5a,6,6a-hexahydro cyclopropa[e]indazole-1-carboxamide]",190
23,"CN(C)CCC(c1ccccc1)n1cc(NC(=O)c2n[nH]c3c2C2CC2CC3)cn1 (single isomer, unassigned) [Example 26d, N-(1-(3-(dimethylamino)-1-phenylpropyl)-1H-pyrazol-4-yl)-3,4,5,5a,6,6a-hexahydrocyclopropa[e]indazole-1-carboxamide]",780
24,"CC1(C)CCc2c(C(=O)Nc3cnn(C(c4ccccc4)C4CNCCS4(=O)=O)c3)n[nH]c2C1 (single isomer, unassigned) [Example 127b]",6
25,"CC12Cc3[nH]nc(C(=O)Nc4cnn(C(c5ccccc5)C5CCS(=O)(=O)CC5)c4)c3CC1C2(F)F (stereo not shown) [Example 141, N-(1-((1,1-dioxidotetrahydro-2H-thiopyran-4-yl)(phenyl)methyl)-1H-pyrazol-4-yl)-5,5-difluoro-5a-methyl-1,4,4a,5,5a,6-hexahydrocyclopropa[f]indazole-3-carboxamide]",< 0.1
26,"O=C(Nc1cnn(Cc2ccccc2)c1)c1n[nH]c2c1CC1CC2C1 [Example 32, N-(1-benzyl-1H-pyrazol-4-yl)-4,5,6,7-tetrahydro-1H-5,7-methanoindazole-3-carboxamide]",38
27,"CC1(C)CCc2c(C(=O)Nc3cnn(C(CCC#N)c4cccnc4)c3)n[nH]c2C1 (single isomer, unassigned) [Example 80b, N-(1-(3-cyano-1-(pyridin-3-yl)propyl)-1H-pyrazol-4-yl)-6,6-dimethyl-4,5,6,7-tetrahydro-1H-indazole-3-carboxamide]",2
28,"CN1CCC(C(c2ccccc2)n2cc(NC(=O)c3n[nH]c4c3CCC(C)(C)C4)cn2)CC1 (single isomer, unassigned) [Example 43b, 6,6-dimethyl-N-(1-((1-methylpiperidin-4-yl)(phenyl)methyl)-1H-pyrazol-4-yl)-4,5,6,7-tetrahydro-1H-indazole-3-carboxamide]",6.2
